As usually defined, the IC50 is the midpoint of a concentration-inhibition curve.

Some results are limits rather than exact numbers.

These results are taken from US20240376085A1 (Janssen Pharmaceutica NV, priority 2021, published 2024).

In test [1] the target is T1, IL-17A : IL-17RA binding (Homo sapiens, UniProt Q16552, K93Q).
T1 construct: Name: IL-17A-Flag
The test can be described thus: IL-17A(FLAG-tagged):IL-17RA(His-tagged) binding disruption Eu-HTRF assay, Protocol 1. Conditions: FLAG-IL-17A 2.5 nM at 2x final concentration; average if tested more than once. A digest of the protocol:
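IC50 came from a one-site competition fit of the acceptor/donor (665/620 nm) HTRF ratio. His-tagged IL-17RA, Eu-anti-FLAG and D2-anti-His were added after a 1 h rt compound preincubation with FLAG-tagged IL-17A dimer in PBS/0.01% Triton X-100, followed by 2 h at rt before reading.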
On the technique in general: TR-FRET usually uses a lanthanide donor and a delayed reading to cut background.

Test [2] relates to IL-17A-induced G-CSF production in human normal keratinocyte (NHK). Put plainly: NHK assay: IL-17A-induced G-CSF production in normal human keratinocytes. Format: cell-based. Conditions: Homo sapiens, Keratinocyte, 24 h, IL-17A 5 ng/mL, average if tested more than once. A digest of the protocol:
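Stimulus rhIL-17A 5 ng/mL final, premixed 1 h rt with compound; adult NHK, 5% FBS, 0.2% DMSO. Viability by CellTiter-Glo vs DMSO.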

T1 sequence (Q16552 with tags, fused parts or gaps K93Q): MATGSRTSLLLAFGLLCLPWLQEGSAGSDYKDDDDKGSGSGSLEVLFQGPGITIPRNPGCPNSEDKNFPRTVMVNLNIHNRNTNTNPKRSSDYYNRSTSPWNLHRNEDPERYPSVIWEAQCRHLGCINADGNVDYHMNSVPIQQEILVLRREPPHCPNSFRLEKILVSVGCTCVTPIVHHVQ

For `C[C@@H](NC(=O)CCC(F)(F)F)c1ccc2nc([C@@H](NC(=O)c3cnnn3CC3CC(F)(F)C3)C3CCC(F)(F)CC3)[nH]c2c1` [Example 66, 1-((3,3-Difluorocyclobutyl)methyl)-N—((S)-(4,4-difluorocyclohexyl)(6-((R)-1-(4,4,4-trifluorobutanamido)ethyl)-1H-benzo[d]imidazol-2-yl)methyl)-1H-1,2,3-triazole-5-carboxamide], the values for the IC50 in test [1] and in test [2] were above 100 nM and 50 to 100 nM, respectively.
Turning to `Cc1nonc1C(=O)N[C@H](c1nc2cc([C@H](NC(=O)CC(C)C(F)(F)F)C3CC3)ccc2[nH]1)[C@@H]1CCCC(F)(F)C1` (single isomer, unassigned) [Example 258, N—((S)-(5-((R)-Cyclopropyl((R*)-4,4,4-trifluoro-3-methylbutanamido)methyl)-1H-benzo[d]imidazol-2-yl)((R)-3,3-difluorocyclohexyl)methyl)-4-methyl-1,2,5-oxadiazole-3-carboxamide], the concentration for half-maximal inhibition (IC50) in test [1] and in test [2] was 50 to 100 nM each time.
As to `CC(C)(C[C@H](NC(=O)c1nonc1C1CC1)c1nc2ccc([C@H](NC(=O)CC3CC(F)(F)C3)C3CC3)cc2[nH]1)C(F)(F)F` [Example 178, 4-Cyclopropyl-N—((S)-1-(6-((R)-cyclopropyl(2-(3,3-difluorocyclobutyl)acetamido)methyl)-1H-benzo[d]imidazol-2-yl)-4,4,4-trifluoro-3,3-dimethylbutyl)-1,2,5-oxadiazole-3-carboxamide], the IC50 in test [1] and in test [2] was below 50 nM each time.
As to `C[C@@H](NC(=O)CCC(F)(F)F)c1ccc2[nH]c(C(CC(C)(C)C(F)(F)F)NC(=O)c3ncnn3CC3CC3)nc2c1` (single isomer, unassigned) [Example 195, 1-(Cyclopropylmethyl)-N—((S*)-4,4,4-trifluoro-3,3-dimethyl-(5-((R)-1-(4,4,4-trifluorobutanamido)ethyl)-1H-benzo[d]imidazol-2-yl)butyl)-1H-1,2,4-triazole-5-carboxamide], the IC50 in test [1] and in test [2] was above 100 nM each time.
For `C[C@@H](NC(=O)CCC(F)(F)F)c1ccc2[nH]c([C@@H](NC(=O)[C@H]3C[C@@H]3C#N)C3CCC(F)(F)CC3)nc2c1` (relative stereo) [Example 103, trans-(1S*,2S*)-2-Cyano-N—((S)-(4,4-difluorocyclohexyl)(5-((R)-1-(4,4,4-trifluorobutanamido)ethyl)-1H-benzo[d]imidazol-2-yl)methyl)cyclopropane-1-carboxamide], the half-inhibitory concentration (IC50) in test [1] and in test [2] was above 100 nM in each case.
`C[C@@H](NC(=O)CC1CC(F)(F)C1)c1ccc2[nH]c([C@@H](NC(=O)c3ccnn3C)C3CCC(F)(F)CC3)nc2c1` [Example 119, N—((S)-(5-((R)-1-(2-(3,3-Difluorocyclobutyl)acetamido)ethyl)-1H-benzo[d]imidazol-2-yl)(4,4-difluorocyclohexyl)methyl)-1-methyl-1H-pyrazole-5-carboxamide]: the IC50 in test [1] is above 100 nM; in test [2], below 50 nM.
For the compound `C[C@@H](NC(=O)CCC(F)(F)F)c1ccc2[nH]c([C@@H](NC(=O)c3cnn(CCOC(F)(F)F)c3)C3CCC(F)(F)CC3)nc2c1` [Example 26, N—[(S)-(4,4-Difluorocyclohexyl)-[6-[(1R)-1-(4,4,4-trifluorobutanoylamino)ethyl]-1H-benzimidazol-2-yl]methyl]-1-[2-(trifluoromethoxy)ethyl]pyrazole-4-carboxamide], the IC50 in test [1] and in test [2] was above 100 nM throughout.
In the case of `C[C@@H](NC(=O)CCC(F)(F)F)c1ccc2nc([C@@H](NC(=O)c3cnnn3CCC(C)(C)C)C3CCC(F)(F)CC3)[nH]c2c1` [Example 68, N—((S)-(4,4-Difluorocyclohexyl)(6-((R)-1-(4,4,4-trifluorobutanamido)ethyl)-1H-benzo[d]imidazol-2-yl)methyl)-1-(3,3-dimethylbutyl)-1H-1,2,3-triazole-5-carboxamide], the half-inhibitory concentration (IC50) in test [1] and in test [2] was above 100 nM throughout.
